Article PMC11900971 (International Journal of Molecular Sciences, 2025)
Where two headings read alike, the source gives them in different places.

How the values were obtained:
[1] = test system: Plasmodium falciparum, strain NF54, erythrocytic stages
[2] = test system: Trypanosoma brucei rhodesiense, STIB 900 strain, bloodstream forms
[3] = test system: L6 cells (rat skeletal myoblasts); settings: read-out: Cyt L6 IC50
[4] = test system: L6 cells (rat skeletal myoblasts); test: cells; settings: L6, read-out: Cyt L6 IC50
[5] = test system: Plasmodium falciparum, strain NF54, erythrocytic stages; test: microbe, parasite or virus in culture
[6] = test system: Trypanosoma brucei rhodesiense, STIB 900 strain, bloodstream forms; test: microbe, parasite or virus in culture
[7] = NF54, read-out: P. falc. pIC50 (converted)
[8] = read-out: T. b. rhod. pIC50 (converted)

| Molecule | IC50 ([5]; NF54, read-out: P. falc. IC50) [µM] | IC50 [5, 7] [µM] | IC50 ([6]; read-out: T. b. rhod. IC50) [µM] | IC50 [6, 8] [µM] | P. falc. pIC50 ([1]; pIC50 = -log10 IC50 (M), P. falciparum NF54) | SI (P. falc.) ([1]; ratio IC50 in L6 cells/IC50 in P. falciparum NF54) | IC50 ([1]; read-out: P. falc. IC50, P. falciparum strain NF54, erythrocytic stages) [µM] | T. b. rhod. pIC50 [2] | SI (T. b. rhod.) ([2]; ratio IC50 in L6 cells/IC50 in T. b. rhodesiense STIB900) | IC50 ([2]; read-out: T. b. rhod. IC50) [µM] | IC50 [3] [µM] | IC50 [4] [µM] |
| --- | --- | --- | --- | --- | --- | --- | --- | --- | --- | --- | --- | --- |
| 2-Methyl-2-{[4-(4,4,4-trifluorobutanamido)phenyl]methyl}-1,4-naphthoquinone [Compound 2n] | – | – | – | – | 6.80 | 92 | 0.159 | 4.14 | 0 | 72.2 | 14.7 | – |
| CCN(CC)CCCC(C)Nc1ccnc2cc(Cl)ccc12 (stereo not shown) [Chl., chloroquine, reference compound] | 0.003 | 0.00302 | – | – | – | – | – | – | – | – | – | 91.1 |
| CC1=C(Cc2ccccc2)C(=O)c2ccccc2C1=O [Compound 2a, 2-Benzyl-3-methyl-1,4-naphthoquinone] | 0.358 | 0.355 | 62.8 | 63.1 | – | – | – | – | – | – | – | 45 |
| CC1=C(Cc2ccc(F)cc2C(F)(F)F)C(=O)c2ccccc2C1=O [Compound 2d, 2-{[4-Fluoro-2-(trifluoromethyl)phenyl]methyl}-3-methyl-1,4-naphthoquinone] | 0.02 | 0.02 | 23.2 | 23.4 | – | – | – | – | – | – | – | 62.3 |
| CC1=C(Cc2cc(C(F)(F)F)ccc2F)C(=O)c2ccccc2C1=O [Compound 2e, 2-{[2-Fluoro-5-(trifluoromethyl)phenyl]methyl}-3-methyl-1,4-naphthoquinone] | 0.006 | 0.00575 | 93 | 93.3 | – | – | – | – | – | – | – | 43 |
| CC1=C(Cc2ccc(Cl)nc2)C(=O)c2ccccc2C1=O [Compound 2f, 2-[(6-Chloropyridin-3-yl)methyl]-3-methyl-1,4-naphthoquinone] | 0.037 | 0.0372 | 8.27 | 8.32 | – | – | – | – | – | – | – | 24.2 |
| CC1=C(Cc2ccc([N+](=O)[O-])cc2)C(=O)c2ccccc2C1=O [Compound 2g, 2-Methyl-3-[(4-nitrophenyl)methyl]-1,4-naphthoquinone] | 0.111 | 0.11 | 28 | 28.2 | – | – | – | – | – | – | – | 19.1 |
| CC1=C(Cc2ccc([N+](=O)[O-])cc2F)C(=O)c2ccccc2C1=O [Compound 2h, 2-[(2-Fluoro-4-nitrophenyl)methyl]-3-methyl-1,4-naphthoquinone] | 0.022 | 0.0214 | 25.5 | 25.7 | – | – | – | – | – | – | – | 17.4 |
| CC1=C(Cc2cc(F)c(F)cc2F)C(=O)c2ccccc2C1=O [Compound 2i, 2-Methyl-3-[(2,4,5-trifluorophenyl)methyl]-1,4-naphthoquinone] | 0.044 | 0.0447 | 30.4 | 30.2 | – | – | – | – | – | – | – | 54.5 |

Further lines, with some results ahead:

| IC50 ([5]; NF54, read-out: P. falc. IC50) [µM] | IC50 [5, 7] [µM] | IC50 ([6]; read-out: T. b. rhod. IC50) [µM] | IC50 [6, 8] [µM] | Molecule | P. falc. pIC50 ([1]; pIC50 = -log10 IC50 (M), P. falciparum NF54) | SI (P. falc.) ([1]; ratio IC50 in L6 cells/IC50 in P. falciparum NF54) | IC50 ([1]; read-out: P. falc. IC50, P. falciparum strain NF54, erythrocytic stages) [µM] | T. b. rhod. pIC50 [2] | SI (T. b. rhod.) ([2]; ratio IC50 in L6 cells/IC50 in T. b. rhodesiense STIB900) | IC50 ([2]; read-out: T. b. rhod. IC50) [µM] | IC50 [3] [µM] | IC50 [4] [µM] |
| --- | --- | --- | --- | --- | --- | --- | --- | --- | --- | --- | --- | --- |
| 0.011 | 0.0115 | 81.4 | 81.3 | CC1=C(Cc2ccc(C(F)(F)F)cc2F)C(=O)c2ccccc2C1=O [Compound 2c, 2-{[2-Fluoro-4-(trifluoromethyl)phenyl]methyl}-3-methyl-1,4-naphthoquinone] | – | – | – | – | – | – | – | 61.7 |
| 0.695 | 0.692 | 28.9 | 28.8 | CC(=O)Nc1ccc(CC2=C(C)C(=O)c3ccccc3C2=O)cc1 [Compound 2j, 2-[(4-Acetamidophenyl)methyl]-3-methyl-1,4-naphthoquinone] | – | – | – | – | – | – | – | 16.3 |
| 0.758 | 0.759 | 39.5 | 39.8 | CC(=O)Nc1cccc(CC2=C(C)C(=O)c3ccccc3C2=O)c1 [Compound 2k, 2-[(3-Acetamidophenyl)methyl]-3-methyl-1,4-naphthoquinone] | – | – | – | – | – | – | – | 16.6 |
| 0.147 | 0.148 | 23.4 | 23.4 | CC1=C(Cc2ccc(NC(=O)C(F)(F)F)cc2)C(=O)c2ccccc2C1=O [Compound 2l, 2-Methyl-3-{[4-(2,2,2-trifluoroacetamido)phenyl]methyl}-1,4-naphthoquinone] | – | – | – | – | – | – | – | 16.1 |
| 0.321 | 0.324 | 24.3 | 24 | CC1=C(Cc2cccc(NC(=O)C(F)(F)F)c2)C(=O)c2ccccc2C1=O [Compound 2m, 2-Methyl-3-{[3-(2,2,2-trifluoroacetamido)phenyl]methyl}-1,4-naphthoquinone] | – | – | – | – | – | – | – | 13.7 |
